Data: US4788136A, “Diagnostic immunoassay by solid phase separation for digoxin” (priority 1987, dated 1988)

Tests used:
[1] = system: β-galactosidase-labeled F(ab')2 (anti-digoxin); test: New digoxin assay (ouabain triacetate solid phase), cross-reactivity of analogs; format: binding, Rabbit; settings: new digoxin assay using ouabain triacetate solid phase; observed assay concentration divided by actual analog concentration times 100
Experimental: (§1) The antigencity of cardiac glycoside analogs was first determined using the TDx@ analyzer and the Abbott Digoxin II assay commercially available from Abbott Laboratories, Abbott Park, Il 60064. Analogs were evaluated as aqueous solutions in TDx dilution buffer. Several analogs were also subsequently evaluated using the new digoxin assay described herein (see generally Example IV) using a ouabain triacetate solid phase prepared in accordance with Example IIB. Analogs evaluated were: [drawing 3] wherein R1 =R2 =R3 =Ac, X=O, Y1, Z1 and Y2, Z2 =a bond connecting the two carbon atoms to which they are attached (A); R1 =R2 =R3 =Ac, X=O, Y1 =OH, Z1 =H, Y2 and Z2 =a bond connecting the two carbon atoms to which they are attached (B); R1 =R2 =R3 =Ac, X=O, Y1 =Y2 =OH, Z1 =Z2 =H (C); and R1 =R2 =R3 =H, X=N, Y1 =Y2 =OH, Z1 =Z2 =H (D). Cross-reactivity was defined as the observed assay concentration divided by the actual analog concentration times 100.

[2] = system: anti-digoxin antibodies; settings: known compounds for immobilization (background); cited from earlier work
[3] = system: anti-digoxin antibodies; test: TDx Abbott Digoxin II assay, antigenicity (cross-reactivity) of cardiac glycoside analogs; format: binding; settings: TDx analyzer, aqueous solutions in TDx dilution buffer, observed assay concentration divided by actual analog concentration times 100
Experimental: as §1

[4] = system: β-galactosidase-labeled F(ab')2; test: Non-competitive assay for digoxin in serum with immobilized ouabain triacetate solid phase (standard curve)
Experimental: The general assay format consists of preincubation of excess β-galactosidase-labeled F(ab')2 (Example II A) with sample such that sample is quantitatively and rapidly bound to form an analyte-β-galactosidase-labeled F(ab')2 conjugate. An aliquot of this mixture is transferred to a vessel containing a ouabain triacetate-albumin-trisacryl solid phase prepared in accordance with procedure of Example II B and having a characteristic density to be easily suspended in solution yet sufficiently dense to rapidly sediment by gravity. The solid phase material rapidly captures the excess unconjugated β-galactosidase-labeled F(ab')2 and sediments. Following the capture reaction and sedimentation an aliguot containing analyte-β-galactosidase-labeled F(ab')2 is transfered to a cuvette for quantitation using a fluorogenic substrate.
Serum solutions containing 0, 0.5, 1.0, 2.0, 3.0 and 5.0 nanograms per milliliter of digoxin were each tested following the same assay protocol described below. A control was also run with zero digoxin and no solid phase material. Fifty microliters of serum sample was mixed with 25 microliters of the β-galactosidase-labeled F(ab')2 (Example II A) and 325 microliters of TDx dilution buffer. The reaction mixture was incubated at 34-35 degrees Celsius for 6 minutes and then a 60 microliter aliquot and 55 microliters of TDx dilution buffer was added to 10 mg of solid phase material (Example II B). The mixture was incubated for 10 minutes with mixing. 400 ul of TDx dilution buffer was then added to the mixture.
The mixture was allowed to rest briefly whereupon it separated into a liquid and solid phase. The β-galactosidase activity of the supernatant was measured by quantitating the production of fluorescein. The measurement was made using 10 micromolar di-(β-D-galactosyl)-fluorescein as substrate in TDx dilution buffer containing 1 mM MgCl2.

SMILES: C[C@@H]1O[C@@H](O[C@H]2C[C@@H](O)[C@]3(CO)[C@H]4[C@H](O)C[C@]5(C)[C@@H](C6=CC(=O)OC6)CC[C@]5(O)[C@@H]4CC[C@]3(O)C2)[C@H](O)[C@H](O)[C@H]1O [Ouabain]
- CROSS-REACTIVITY (%) NEW ASSAY [1]: 1.8 × 10^-3%
- affinity for labeled anti digoxin antibody, in words [2]: relatively high affinity
- CROSS-REACTIVITY (%) DIGOXIN II [3]: 2.0 × 10^-2%

SMILES: C[C@H]1O[C@@H](O[C@H]2[C@@H](O)C[C@H](O[C@H]3[C@@H](O)C[C@H](O[C@H]4CC[C@@]5(C)[C@H](CC[C@@H]6[C@@H]5C[C@@H](O)[C@]5(C)[C@@H](C7=CC(=O)OC7)CC[C@]65O)C4)O[C@@H]3C)O[C@@H]2C)C[C@H](O)[C@@H]1O [Digoxin]
- CROSS-REACTIVITY (%) NEW ASSAY [1]: 100%
- affinity for labeled anti digoxin antibody, in words [2]: relatively high affinity
- Fluorescence Measured Rate ([4]; digoxin 0.5 ng/mL in serum): 160
- Fluorescence Measured Rate ([4]; digoxin 1.0 ng/mL in serum): 220
- Fluorescence Measured Rate ([4]; digoxin 2.0 ng/mL in serum): 448
- Fluorescence Measured Rate ([4]; digoxin 3.0 ng/mL in serum): 745
- Fluorescence Measured Rate ([4]; digoxin 5.0 ng/mL in serum): 1231
- CROSS-REACTIVITY (%) DIGOXIN II [3]: 100%

SMILES: CC(=O)OCC12C(=CCC3C4=CCC(C5=CC(=O)OC5)C4(C)CC(OC(C)=O)C31)CC(OC1OC(C)C(O)C(O)C1O)CC2OC(C)=O (centres unmarked) [Ouabain Triacetate (A)]
- CROSS-REACTIVITY (%) DIGOXIN II [3]: 1.6 × 10^-3%

SMILES: CC1OC(OC2CC(O)C3(CO)C4C(O)CC5(C)C(C6=CC(=O)NC6)CCC5(O)C4CCC3(O)C2)C(O)C(O)C1O (centres unmarked) [Ouabain Lactam (D)]
- CROSS-REACTIVITY (%) DIGOXIN II [3]: 9.1 × 10^-4%

SMILES: CC(=O)OCC12C(OC(C)=O)CC(OC3OC(C)C(O)C(O)C3O)CC1(O)CCC1C3=CCC(C4=CC(=O)OC4)C3(C)CC(OC(C)=O)C12 (centres unmarked) [Ouabain Triacetate (B)]
- CROSS-REACTIVITY (%) DIGOXIN II [3]: 1.5 × 10^-3%

SMILES: CC1OC(OC2C(O)CC(OC3C(O)CC(OC4CCC5(C)C(CCC6C5CC(O)C5(C)C(C7=CC(=O)NC7)CCC65O)C4)OC3C)OC2C)CC(O)C1O (centres unmarked) [Digoxin Lactam]
- CROSS-REACTIVITY (%) DIGOXIN II [3]: 0.41%

SMILES: CC(=O)OCC12C(OC(C)=O)CC(OC3OC(C)C(O)C(O)C3O)CC1(O)CCC1C2C(OC(C)=O)CC2(C)C(C3=CC(=O)OC3)CCC12O (centres unmarked) [Ouabain Triacetate (C)]
- CROSS-REACTIVITY (%) NEW ASSAY [1]: 2.2 × 10^-4%
- CROSS-REACTIVITY (%) DIGOXIN II [3]: 3.7 × 10^-4%
